Series [1] can be described thus: In-solution Stability Test 1 (clouding by eye in citrate/citric acid, glycerol·1,3-butylene glycol·ethanol, water solution). Format: physicochemical. Further details: key to In-solution Stability Test 1 Room Temperature (20° C.) / In-solution Stability Test 1 50° C.: A: No clouding; B: Clouded; Distinguished Clouding. Particulars: for In-solution Stability Test 1 50° C.: left standing at 50° C. for 10 days; for In-solution Stability Test 1 50° C. / In-solution Stability Test 1 Room Temperature (20° C.): 2 g sample, 16 g mixed solution, clouding state observed by eye; for In-solution Stability Test 1 Room Temperature (20° C.): left standing at room temperature (20° C.) for 1 month. The method, then: In-solution Stability Test 1
Into a 200 ml-volume Erlenmeyer flask, 2 g of a sample (APM), 0.4 g of sodium citrate dihydrate and 0.05 g of citric acid were charged. Thereto, 16 g of glycerol·1,3-butylene glycol·ethanol mixed solution (volume ratio: 3:5:8) was added and the resulting solution was stirred for 30 minutes. Thereto, 82 g of pure water was added and the resulting solution was further stirred for 2 hours. After filtering this solution through a filter, a half amount was left standing at room temperature (20° C.) for 1 month and the remaining half amount was left standing at 50° C. for 10 days.

Series [2] can be described thus: In-solution Stability Test 2 (clouding by eye in citrate/citric acid, glycerol·1,3-butylene glycol·ethanol, water solution). Format: physicochemical. Set-up: key to In-solution Stability Test 2 Room Temperature (20° C.) / In-solution Stability Test 2 50° C.: A: No clouding; B: Clouded; Distinguished Clouding. Particulars: for In-solution Stability Test 2 50° C.: left standing at 50° C. for 10 days; for In-solution Stability Test 2 50° C. / In-solution Stability Test 2 Room Temperature (20° C.): 2 g sample, 15 g mixed solution, clouding state observed by eye; for In-solution Stability Test 2 Room Temperature (20° C.): left standing at room temperature (20° C.) for 1 month. Here is the method: In-solution Stability Test 2
Into a 200 ml-volume Erlenmeyer flask, 2 g of a sample (APM), 0.4 g of sodium citrate dihydrate and 0.05 g of citric acid were charged. Thereto, 15 g of glycerol·1,3-butylene glycol·ethanol mixed solution (volume ratio: 3:5:8) was charged and the resulting solution was stirred for 30 minutes. Thereto, 82 g of pure water was added and further stirred for 2 hours. After filtering this solution through a filter, a half amount was left standing at room temperature (20° C.) for 1 month and the remaining half amount was left standing at 50° C. for 10 days.

The mark [3] stands for this setting: temperature not specified in the sentence (whole test).

Counter-ions that a name gives are not always drawn.

Take `O=C1O[C@H]([C@@H](O)CO)C(O)=C1OP(=O)(O)O` [Example 1, L-ascorbic acid 2-phosphate magnesium salt]: in series [1], the “In-solution Stability Test 1 50° C.” value was “A” and the “In-solution Stability Test 1 Room Temperature (20° C.)” value is listed as “A”. The “clouding in in-solution stability test 1” value in series [1] (setting [3]) was “clouding was not observed”. In series [2], the “In-solution Stability Test 2 50° C.” value was “A” and the “In-solution Stability Test 2 Room Temperature (20° C.)” value is recorded as “A”. In series [2] (setting [3]), the “clouding in in-solution stability test 2” value is reported as “clouding was not observed”.
On to `O=C1O[C@H]([C@@H](O)CO)C(O)=C1OP(=O)([O-])[O-].[Mg+2]` [Comparative Example 2, L-ascorbic acid 2-phosphate magnesium salt], for which the “clouding in in-solution stability test 1” value is recorded as “more distinguished clouding was observed” in series [1] (50° C.) and “clouding was observed” in series [1] (room temperature (20° C.)). In addition, in series [1], the “In-solution Stability Test 1 50° C.” value is recorded as “C”. The “In-solution Stability Test 1 Room Temperature (20° C.)” value in series [1] was “B”. The “clouding in in-solution stability test 2” value in series [2] (50° C.) and in series [2] (room temperature (20° C.)) was “distinguished clouding was observed” each time. Further, the “In-solution Stability Test 2 50° C.” value in series [2] is given as “C”. Besides, the “In-solution Stability Test 2 Room Temperature (20° C.)” value in series [2] was “C”.
Regarding `O=C1O[C@H]([C@@H](O)CO)C(O)=C1OP(=O)([O-])[O-].[Mg+2]` [Comparative Example 1, L-ascorbic acid 2-phosphate magnesium salt], in series [1] (50° C.), the “clouding in in-solution stability test 1” value is given as “more distinguished clouding was observed”. In series [1], the “In-solution Stability Test 1 50° C.” value is given as “C” and the “In-solution Stability Test 1 Room Temperature (20° C.)” value is given as “B”. For the same compound, the “clouding in in-solution stability test 1” value in series [1] (room temperature (20° C.)) is reported as “clouding was observed”. In addition, the “clouding in in-solution stability test 2” value in series [2] (50° C.) was “more distinguished clouding was observed”. Further, in series [2], the “In-solution Stability Test 2 50° C.” value was “C” and the “In-solution Stability Test 2 Room Temperature (20° C.)” value is listed as “B”. Further, the “clouding in in-solution stability test 2” value in series [2] (room temperature (20° C.)) was “clouding was observed”.
